Source: patent US10106538B2, “Inhibitors of protein kinases” (PRINCETON DRUG DISCOVERY INC, priority 2015, dated 2018)

Columns and labels:
Experiment in all cases: Off-chip Mobility Shift Assay (MSA) kinase inhibition
Type in all cases: biochemical
[1] = target: T1, PKD1 (Homo sapiens, UniProt Q15139); details: inhibitor concentration 1 μM
T1 construct: purchased Carna Biosciences
Experimental: (§1) Off-chip Mobility Shift Assay (MSA) by Cama Biosciences, Inc (Natick, Mass.) a used for measuring the kinase activity and inhibition. • 1) The 5 μL of x4 compound solution, 5 μL of x4 Substrate/ATP/Metal solution, and 10 μL of x2 kinase solution were prepared with assay buffer (20 mM HEPES, 0.01% Triton X100, 2 mM DTT, pH 7.5) and mixed and incubated in a well of polypropylene 384 well microplate for 1 or 5 hour(s)* at room temperature. (*; depending on kinase) • 2) 70 μL of Termination Buffer (QuickScout Screening Assist A; Cama Biosciences) was added to the welt • 3) The reaction mixture was applied to LabChip system (Perkin Elmer), and the product and substrate peptide peaks were separated and quantitated. • 4) The kinase reaction was evaluated by the product ratio calculated from peak heights of product (P) and substrate (S) peptides (P/(P+S)). • 5) The reaction conditions were followed according to assay protocols of Ca n Biosciences, Inc (BMA 3F, 1-5-5 Minatojima-Minamimachi, Chuo-ku, Kobe 650-0047, Japan; www.carnabio.com). • 6 Data analysis: The readout value of reaction control (complete reaction mixture) was set as a 0% inhibition, and the readout value of background (Enzyme (−)) was set as a 100% inhibition, then the percent inhibition of each test solution was calculated, […]

[2] = target: T2, DDR2 (Homo sapiens, UniProt Q16832)
T2 construct: purchased Carna Biosciences
T2 sequence (Q16832 22-855): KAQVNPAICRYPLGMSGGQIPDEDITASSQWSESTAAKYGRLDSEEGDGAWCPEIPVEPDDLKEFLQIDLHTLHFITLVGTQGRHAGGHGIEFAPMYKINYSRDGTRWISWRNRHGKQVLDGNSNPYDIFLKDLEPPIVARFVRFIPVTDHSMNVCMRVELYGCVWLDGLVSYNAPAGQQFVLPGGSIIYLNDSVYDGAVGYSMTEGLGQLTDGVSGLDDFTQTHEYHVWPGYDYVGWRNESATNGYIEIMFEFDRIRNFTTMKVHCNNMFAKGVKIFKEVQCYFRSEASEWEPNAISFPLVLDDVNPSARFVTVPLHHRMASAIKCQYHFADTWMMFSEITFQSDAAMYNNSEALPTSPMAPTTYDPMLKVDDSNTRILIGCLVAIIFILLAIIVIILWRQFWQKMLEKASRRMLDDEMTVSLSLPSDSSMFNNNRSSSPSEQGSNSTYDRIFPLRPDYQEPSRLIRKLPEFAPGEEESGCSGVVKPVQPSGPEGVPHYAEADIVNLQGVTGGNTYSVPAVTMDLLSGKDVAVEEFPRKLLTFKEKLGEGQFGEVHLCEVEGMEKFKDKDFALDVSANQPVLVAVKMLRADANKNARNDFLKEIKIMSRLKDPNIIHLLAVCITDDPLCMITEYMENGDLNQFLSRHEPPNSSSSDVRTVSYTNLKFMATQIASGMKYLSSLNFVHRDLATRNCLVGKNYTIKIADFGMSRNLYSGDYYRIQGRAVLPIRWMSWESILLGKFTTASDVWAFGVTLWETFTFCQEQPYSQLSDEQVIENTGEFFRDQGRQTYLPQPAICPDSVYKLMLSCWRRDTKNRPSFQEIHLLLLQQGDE
Experimental: as §1

[3] = target: T3, ROCK2 (Homo sapiens, UniProt O75116); details: inhibitor concentration 1 μM
T3 construct: purchased Carna Biosciences
Experimental: as §1

[4] = target: T4, FRK (Homo sapiens, UniProt P42685); details: inhibitor concentration 1 μM
T4 construct: purchased Carna Biosciences
Experimental: as §1

[5] = target: T5, MAP2K5 (Homo sapiens, UniProt Q13163); details: inhibitor concentration 1 μM
T5 construct: purchased Carna Biosciences
Experimental: as §1

[6] = target: T6, skMLCK (Homo sapiens, UniProt Q9H1R3); details: inhibitor concentration 1 μM
T6 construct: purchased Carna Biosciences
Experimental: as §1

[7] = target: T7, FYN(isoform a) (Homo sapiens, UniProt P06241)
T7 construct: purchased Carna Biosciences
Experimental: as §1

[8] = target: T8, YES(T348I) (Homo sapiens, UniProt P07947, T348I); details: inhibitor concentration 1 μM
T8 construct: purchased Carna Biosciences
Experimental: as §1

[9] = target: T9, KIT(D816Y) (Homo sapiens, UniProt P10721, D816Y); details: inhibitor concentration 1 μM
T9 construct: purchased Carna Biosciences
Experimental: as §1

[10] = target: T10, YES (Homo sapiens, UniProt P07947)
T10 construct: purchased Carna Biosciences
Experimental: as §1

[11] = target: T11, WNK3 (Homo sapiens, UniProt Q9BYP7); details: inhibitor concentration 1 μM
T11 construct: purchased Carna Biosciences
Experimental: as §1

[12] = target: T12, DDR1 (Homo sapiens, UniProt Q08345)
T12 construct: purchased Carna Biosciences
Experimental: as §1

[13] = target: T13, RET(G691S) (Homo sapiens, UniProt P07949, G691S)
T13 construct: purchased Carna Biosciences
Experimental: as §1

[14] = target: T14, KIT(V654A) (Homo sapiens, UniProt P10721, V654A); details: inhibitor concentration 1 μM
T14 construct: purchased Carna Biosciences
Experimental: as §1

[15] = target: T15, MAP2K7 (Homo sapiens, UniProt O14733); details: inhibitor concentration 1 μM
T15 construct: purchased Carna Biosciences
Experimental: as §1

[16] = target: T16, KIT(D816E) (Homo sapiens, UniProt P10721, D816E); details: inhibitor concentration 1 μM
T16 construct: purchased Carna Biosciences
Experimental: as §1

[17] = target: T17, RET(M918T) (Homo sapiens, UniProt P07949, M918T)
T17 construct: purchased Carna Biosciences
Experimental: as §1

[18] = target: T18, MAP2K6 (Homo sapiens, UniProt P52564); details: inhibitor concentration 1 μM
T18 construct: purchased Carna Biosciences
Experimental: as §1

[19] = target: T19, BLK (Homo sapiens, UniProt P51451)
T19 construct: purchased Carna Biosciences
Experimental: as §1

[20] = target: T20, MST3 (Homo sapiens, UniProt Q9Y6E0); details: inhibitor concentration 1 μM
T20 construct: purchased Carna Biosciences
Experimental: as §1

[21] = inhibitor concentration 0.01 μM

T12 sequence (Q08345 19-913): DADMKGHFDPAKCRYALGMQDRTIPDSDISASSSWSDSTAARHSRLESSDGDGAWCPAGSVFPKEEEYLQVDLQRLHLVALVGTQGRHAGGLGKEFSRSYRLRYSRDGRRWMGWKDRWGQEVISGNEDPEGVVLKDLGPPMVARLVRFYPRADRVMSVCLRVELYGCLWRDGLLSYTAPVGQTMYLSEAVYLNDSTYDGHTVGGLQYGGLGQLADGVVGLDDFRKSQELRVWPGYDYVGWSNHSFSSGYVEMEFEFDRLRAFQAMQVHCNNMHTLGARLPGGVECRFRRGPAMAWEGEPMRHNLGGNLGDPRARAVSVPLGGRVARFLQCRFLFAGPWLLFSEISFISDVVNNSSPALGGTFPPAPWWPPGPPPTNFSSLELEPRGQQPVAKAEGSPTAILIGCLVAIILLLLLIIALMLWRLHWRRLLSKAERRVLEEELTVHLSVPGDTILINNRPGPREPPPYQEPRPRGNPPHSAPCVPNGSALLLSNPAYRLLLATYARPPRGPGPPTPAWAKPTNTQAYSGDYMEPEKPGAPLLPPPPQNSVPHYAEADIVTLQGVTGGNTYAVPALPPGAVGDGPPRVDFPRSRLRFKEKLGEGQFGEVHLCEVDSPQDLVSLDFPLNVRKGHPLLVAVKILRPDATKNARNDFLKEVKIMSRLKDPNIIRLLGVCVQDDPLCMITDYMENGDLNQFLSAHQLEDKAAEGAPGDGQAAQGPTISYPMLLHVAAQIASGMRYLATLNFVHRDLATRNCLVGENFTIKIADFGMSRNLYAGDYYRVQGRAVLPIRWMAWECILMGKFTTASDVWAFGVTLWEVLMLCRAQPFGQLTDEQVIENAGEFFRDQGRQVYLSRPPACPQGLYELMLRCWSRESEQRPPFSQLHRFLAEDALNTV
T13 sequence (P07949 29-1114 G691S): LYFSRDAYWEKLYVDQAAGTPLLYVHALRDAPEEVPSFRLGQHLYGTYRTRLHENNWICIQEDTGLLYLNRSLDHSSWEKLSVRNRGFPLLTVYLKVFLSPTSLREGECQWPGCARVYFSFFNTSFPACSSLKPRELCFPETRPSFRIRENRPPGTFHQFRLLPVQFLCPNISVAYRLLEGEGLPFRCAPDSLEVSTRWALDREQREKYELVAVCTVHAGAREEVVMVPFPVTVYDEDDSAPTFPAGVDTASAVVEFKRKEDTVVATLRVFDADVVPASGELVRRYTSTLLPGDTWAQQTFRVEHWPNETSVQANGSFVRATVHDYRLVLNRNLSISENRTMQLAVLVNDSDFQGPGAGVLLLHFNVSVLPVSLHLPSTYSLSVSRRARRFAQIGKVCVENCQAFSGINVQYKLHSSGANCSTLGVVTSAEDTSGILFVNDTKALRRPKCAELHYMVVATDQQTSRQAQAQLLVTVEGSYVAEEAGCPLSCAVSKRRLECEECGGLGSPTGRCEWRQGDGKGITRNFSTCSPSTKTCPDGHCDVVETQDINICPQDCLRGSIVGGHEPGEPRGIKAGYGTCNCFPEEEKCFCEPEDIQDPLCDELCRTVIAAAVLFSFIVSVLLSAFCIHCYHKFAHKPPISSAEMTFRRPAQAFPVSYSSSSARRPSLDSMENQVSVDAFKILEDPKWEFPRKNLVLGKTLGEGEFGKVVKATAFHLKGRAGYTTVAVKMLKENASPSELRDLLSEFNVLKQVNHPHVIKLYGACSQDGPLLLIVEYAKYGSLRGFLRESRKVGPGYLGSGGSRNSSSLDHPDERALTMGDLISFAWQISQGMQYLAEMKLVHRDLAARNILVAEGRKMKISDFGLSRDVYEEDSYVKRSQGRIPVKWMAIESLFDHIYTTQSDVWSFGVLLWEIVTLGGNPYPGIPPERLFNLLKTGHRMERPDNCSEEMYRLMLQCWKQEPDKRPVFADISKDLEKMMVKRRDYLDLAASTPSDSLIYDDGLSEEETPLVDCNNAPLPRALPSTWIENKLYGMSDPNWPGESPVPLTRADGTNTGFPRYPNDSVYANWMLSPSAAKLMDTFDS
T7 sequence (P06241 whole entry, canonical isoform): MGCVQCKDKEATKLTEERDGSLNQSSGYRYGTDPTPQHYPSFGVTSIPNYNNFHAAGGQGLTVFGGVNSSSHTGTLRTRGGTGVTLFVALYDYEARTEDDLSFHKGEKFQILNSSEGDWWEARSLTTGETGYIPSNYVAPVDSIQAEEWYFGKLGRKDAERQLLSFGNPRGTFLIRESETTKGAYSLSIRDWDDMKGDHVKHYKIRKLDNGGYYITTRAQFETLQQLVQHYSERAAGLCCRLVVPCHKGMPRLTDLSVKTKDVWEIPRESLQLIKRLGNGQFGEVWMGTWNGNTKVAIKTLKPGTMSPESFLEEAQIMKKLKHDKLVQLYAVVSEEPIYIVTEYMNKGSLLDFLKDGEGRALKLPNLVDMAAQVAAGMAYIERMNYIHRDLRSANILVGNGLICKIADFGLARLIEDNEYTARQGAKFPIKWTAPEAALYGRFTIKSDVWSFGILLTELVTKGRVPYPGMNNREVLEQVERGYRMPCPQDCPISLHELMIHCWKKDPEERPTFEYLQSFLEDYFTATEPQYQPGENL
T19 sequence (P51451 whole entry): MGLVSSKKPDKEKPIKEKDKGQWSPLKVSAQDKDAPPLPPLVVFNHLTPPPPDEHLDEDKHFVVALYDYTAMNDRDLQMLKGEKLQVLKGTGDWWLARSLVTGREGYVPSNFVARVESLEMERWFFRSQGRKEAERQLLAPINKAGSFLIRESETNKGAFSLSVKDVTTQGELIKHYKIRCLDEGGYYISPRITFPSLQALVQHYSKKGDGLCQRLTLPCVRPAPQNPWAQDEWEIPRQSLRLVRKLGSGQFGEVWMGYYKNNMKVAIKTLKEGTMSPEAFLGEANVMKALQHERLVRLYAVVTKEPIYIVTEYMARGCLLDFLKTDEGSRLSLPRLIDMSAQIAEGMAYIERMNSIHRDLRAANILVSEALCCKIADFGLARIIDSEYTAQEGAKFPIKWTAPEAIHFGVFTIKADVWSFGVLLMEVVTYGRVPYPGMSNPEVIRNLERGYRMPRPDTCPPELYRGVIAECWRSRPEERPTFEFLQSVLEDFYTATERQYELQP
T17 sequence (P07949 29-1114 M918T): as the sequence (P07949 29-1114 G691S) above, with S663G, M890T counted along it
T10 sequence (P07947 whole entry): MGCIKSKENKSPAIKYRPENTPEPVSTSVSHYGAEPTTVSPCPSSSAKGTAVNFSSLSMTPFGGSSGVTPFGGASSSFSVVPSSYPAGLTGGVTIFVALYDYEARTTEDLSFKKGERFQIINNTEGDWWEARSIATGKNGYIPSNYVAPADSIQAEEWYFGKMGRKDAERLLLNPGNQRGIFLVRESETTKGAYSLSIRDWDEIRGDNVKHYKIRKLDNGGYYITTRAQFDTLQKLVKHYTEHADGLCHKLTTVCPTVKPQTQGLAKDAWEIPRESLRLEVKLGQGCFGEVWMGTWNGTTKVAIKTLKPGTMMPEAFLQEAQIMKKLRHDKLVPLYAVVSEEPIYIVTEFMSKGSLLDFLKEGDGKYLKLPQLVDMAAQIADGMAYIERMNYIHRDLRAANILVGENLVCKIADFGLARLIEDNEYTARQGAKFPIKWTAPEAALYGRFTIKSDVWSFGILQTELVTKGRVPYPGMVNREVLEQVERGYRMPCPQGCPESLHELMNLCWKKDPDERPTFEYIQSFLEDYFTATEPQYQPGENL
T15 sequence (O14733 whole entry): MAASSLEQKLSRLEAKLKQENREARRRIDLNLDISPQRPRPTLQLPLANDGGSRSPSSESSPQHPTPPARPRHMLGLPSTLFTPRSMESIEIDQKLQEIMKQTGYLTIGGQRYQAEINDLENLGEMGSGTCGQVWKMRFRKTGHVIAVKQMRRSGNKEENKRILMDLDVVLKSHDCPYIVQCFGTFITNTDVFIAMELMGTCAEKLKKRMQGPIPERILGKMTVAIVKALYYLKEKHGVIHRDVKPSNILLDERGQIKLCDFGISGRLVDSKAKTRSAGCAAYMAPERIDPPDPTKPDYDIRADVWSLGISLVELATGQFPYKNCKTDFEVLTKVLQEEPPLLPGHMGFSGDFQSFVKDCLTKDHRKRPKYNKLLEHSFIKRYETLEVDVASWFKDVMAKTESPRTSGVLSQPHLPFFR
T1 sequence (Q15139 whole entry): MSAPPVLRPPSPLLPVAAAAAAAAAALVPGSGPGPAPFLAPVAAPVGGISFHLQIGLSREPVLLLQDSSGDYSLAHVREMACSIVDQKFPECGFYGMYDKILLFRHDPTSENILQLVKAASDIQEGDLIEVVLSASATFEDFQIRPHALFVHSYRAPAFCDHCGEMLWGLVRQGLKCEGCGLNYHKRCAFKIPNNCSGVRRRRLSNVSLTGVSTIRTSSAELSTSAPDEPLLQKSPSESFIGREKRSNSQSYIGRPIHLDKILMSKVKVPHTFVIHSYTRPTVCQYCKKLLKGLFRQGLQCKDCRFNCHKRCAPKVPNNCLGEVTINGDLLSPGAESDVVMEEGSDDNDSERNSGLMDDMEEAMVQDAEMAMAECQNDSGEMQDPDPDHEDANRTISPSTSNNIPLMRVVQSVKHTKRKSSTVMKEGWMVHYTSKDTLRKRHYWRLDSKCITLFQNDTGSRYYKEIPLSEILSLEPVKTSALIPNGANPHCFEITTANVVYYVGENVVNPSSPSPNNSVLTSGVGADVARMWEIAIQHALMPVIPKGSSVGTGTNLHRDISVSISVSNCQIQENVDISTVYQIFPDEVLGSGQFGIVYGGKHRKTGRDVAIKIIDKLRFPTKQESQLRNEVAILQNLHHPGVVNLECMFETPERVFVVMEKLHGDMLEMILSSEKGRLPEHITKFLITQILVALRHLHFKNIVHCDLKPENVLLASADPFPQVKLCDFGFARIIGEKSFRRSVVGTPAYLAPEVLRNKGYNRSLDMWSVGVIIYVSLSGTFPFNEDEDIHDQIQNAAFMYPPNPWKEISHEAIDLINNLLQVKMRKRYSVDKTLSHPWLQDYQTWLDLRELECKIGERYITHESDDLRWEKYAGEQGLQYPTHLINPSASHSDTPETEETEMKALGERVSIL

With `O=C(c1c(F)ccc(NS(=O)(=O)CCCO)c1F)c1c[nH]c2ncc(-c3ccc(Cl)cc3)cc12` [200-17, N-[3-[5-(4-chlorophenyl)-1H-pyrrolo[2,3-b]pyridine-3-carbonyl]-2,4-difluorophenyl]-3-hydroxypropane-1-sulfonamide] the inhibition at 1 µM [1] was < 50%, the inhibition at 0.01 µM [2, 21] was < 30% and the inhibition at 0.1 µM ([2]; inhibitor concentration 0.1 μM) was > 50%. For the same compound, the inhibition at 1 µM ([2]; inhibitor concentration 1 μM) was > 50%, the inhibition at 1 µM [3] was < 50% and the inhibition at 1 µM [4] was > 50%. The inhibition at 1 µM [5] was > 50%, the inhibition at 1 µM [6] was > 50% and the inhibition at 0.01 µM [7, 21] was < 30%. For the same compound, the inhibition at 0.1 µM ([7]; inhibitor concentration 0.1 μM) was < 50%, the inhibition at 1 µM ([7]; inhibitor concentration 1 μM) was > 50% and the inhibition at 1 µM [8] was > 50%. For the same compound, the inhibition at 1 µM [9] was < 50%, the inhibition at 0.01 µM [10, 21] was < 30% and the inhibition at 0.1 µM ([10]; inhibitor concentration 0.1 μM) was > 50%. The inhibition at 1 µM ([10]; inhibitor concentration 1 μM) was > 50%, the inhibition at 1 µM [11] was > 50% and the inhibition at 0.01 µM [12, 21] was < 30%. For the same compound, the inhibition at 0.1 µM ([12]; inhibitor concentration 0.1 μM) was > 50%, the inhibition at 1 µM ([12]; inhibitor concentration 1 μM) was > 50% and the inhibition at 0.01 µM [13, 21] was < 30%. The inhibition at 0.1 µM ([13]; inhibitor concentration 0.1 μM) was < 50%, the inhibition at 1 µM ([13]; inhibitor concentration 1 μM) was > 50% and the inhibition at 1 µM [14] was > 50%. The inhibition at 1 µM [15] was < 50%, the inhibition at 1 µM [16] was > 50% and the inhibition at 0.01 µM [17, 21] was < 30%. For the same compound, the inhibition at 0.1 µM ([17]; inhibitor concentration 0.1 μM) was < 50%, the inhibition at 1 µM ([17]; inhibitor concentration 1 μM) was > 50% and the inhibition at 1 µM [18] was < 50%. For the same compound, the inhibition at 0.01 µM [19, 21] was < 30%, the inhibition at 0.1 µM ([19]; inhibitor concentration 0.1 μM) was > 50% and the inhibition at 1 µM ([19]; inhibitor concentration 1 μM) was > 50%. For the same compound, the inhibition at 1 µM [20] was < 50%.
